Data published in patent publication US8871798B2, “Tricyclic pyridyl-vinyl pyrroles as PAR1 inhibitors” (Sanofi, priority 2010, dated 2014).

biological target: T1, PAR1 (Homo sapiens, UniProt P25116); test: Inhibition of PAR1-mediated platelet aggregation induced by TRAP (thrombin receptor-activating peptide), washed platelets, 96-well format; assay type: cell-based; conditions: TRAP-induced aggregation of platelets from healthy volunteers; 30 min preincubation at RT; AUC of kinetics at 650 nm, 37° C., 20 minutes
T1 construct: endogenous in cells; host or cells: washed platelets from blood of healthy volunteers
T1 sequence (P25116 22-425): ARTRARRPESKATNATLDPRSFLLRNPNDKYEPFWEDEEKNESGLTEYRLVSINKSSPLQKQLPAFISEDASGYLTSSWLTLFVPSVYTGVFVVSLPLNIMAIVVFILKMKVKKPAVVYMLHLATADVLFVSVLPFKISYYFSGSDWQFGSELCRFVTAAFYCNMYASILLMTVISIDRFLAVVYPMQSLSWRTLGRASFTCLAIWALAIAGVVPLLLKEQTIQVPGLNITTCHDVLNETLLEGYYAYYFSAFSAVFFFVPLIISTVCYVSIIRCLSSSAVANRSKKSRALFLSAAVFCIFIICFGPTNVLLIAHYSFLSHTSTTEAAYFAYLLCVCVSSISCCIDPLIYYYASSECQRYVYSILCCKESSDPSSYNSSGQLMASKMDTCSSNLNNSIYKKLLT
Description: PAR1 Determination Method: Inhibition of PAR1-Mediated Platelet Aggregation
The pharmacological testing of the substances took place in platelet aggregation induced by TRAP (thrombin receptor-activating peptide) in 96-well format. For this purpose, blood was taken from healthy volunteers in 20 ml syringes containing 2 ml of 3.13% strength sodium citrate solution. After centrifugation at 150×g for 20 minutes, the platelet-rich plasma (PRP) was separated off and mixed with 1 μl of PGE1 solution (500 μg/ml in ethanol)/ml of PRP. Incubation at RT for 5 minutes was followed by centrifugation at 120×g for 15 minutes to remove the leukocytes. The leukocyte-free PRP was transferred in 5 ml portions into 15 ml PP tubes and centrifuged at 360×g for 15 minutes in order to pellet the platelets. The plasma was then decanted off and the platelet sediment from 5 ml of PRP was resuspended in 1 ml of Tyrode's (120 mM NaCl, 2.6 mM KCl, 12 mM NaHCO3, 0.39 mM NaH2PO4×H2O, 10 mM HEPES, 0.35% BSA (Bovine Serum Albumin), 5.5 mM glucose, pH 7.4) and adjusted with Tyrode's to a platelet count of 3×10^5/microliter (μl). 13 ml of this cell suspension were then mixed with 866 μl of 10 mM CaCl2 solution, and 120 μl thereof were pipetted into each well of a 96-well plate containing 15 μl of the substance to be tested. After incubation at RT in the dark for 30 minutes, 15 μl of a TRAP solution (70-100 μM) were added as agonist, and kinetics were recorded at 650 nm in a SpectraMax 340 at 37° C. for 20 minutes while shaking. The areas under the curves of negative control (Tyrode's/DMSO) and positive control (15 μl of agonist DMSO) were calculated and the difference was fixed as the 100% value. The substances to be tested were pipetted as serial dilutions in duplicate determination, the AUC was likewise determined for each substance concentration, and the % inhibition of the AUC compared with the control was calculated. On the basis of the % inhibition, the IC50 was calculated by nonlinear regression analysis according to the 4-parameter equation.

Row | SMILES | IC50
1 | CN1C(=O)C2C(C1=O)C1C[C@H](O)CN1C2/C=C/c1ccc(-c2cccc(F)c2)cn1 (mixture of isomers) [11 (Fr. 2), (S)-4-{(E)-2-[5-(3-Fluorophenyl)pyridin-2-yl]vinyl}-7-hydroxy-2-methylhexahydropyrrolo[3,4-a]pyrrolizine-1,3-dione] | 15.8 µM
2 | CN1C(=O)C2C(C1=O)C1COCCN1C2/C=C/c1ccc(-c2cccc(F)c2)cn1 (racemic) [13 (Fr. 3), 6-{(E)-2-[5-(3-Fluorophenyl)pyridin-2-yl]vinyl}-8-methylhexahydropyrrolo[3′,4′:3,4]pyrrolo[2,1-c][1,4]oxazine-7,9-dione] | 7.1 µM
3 | CCN1C(=O)C2C(C1=O)C1CCCCN1C2/C=C/c1ccc(-c2cccc(F)c2)cn1 (racemic) [14 (Fr. 3), 2-Ethyl-4-{(E)-2-[5-(3-fluorophenyl)pyridin-2-yl]vinyl}octahydropyrrolo[3,4-a]indolizine-1,3-dione] | 3.68 µM
4 | COc1ccccc1-c1ccc(/C=C/[C@H]2[C@H]3C(=O)N(C)C(=O)[C@H]3[C@@H]3CCCCN23)nc1 (racemic) [Example 19, 4-{(E)-2-[5-(2-Methoxyphenyl)pyridin-2-yl]vinyl}-2-methyloctahydropyrrolo[3,4-a]-indolizine-1,3-dione] | 4.09 µM

The next molecules have a lower IC50 than those just listed; values first:

Row | IC50 | SMILES
5 | 3.23 µM | CN1C(=O)[C@@H]2[C@H](C1=O)[C@H](/C=C/c1ccc(-c3cccc(C(F)(F)F)c3)cn1)N1CCCC[C@@H]21 (racemic) [Example 18, 2-Methyl-4-{(E)-2-[5-(3-trifluoromethylphenyl)pyridin-2-yl]vinyl}octahydropyrrolo[3,4-a]indolizine-1,3-dione]
6 | 0.26 µM | CN1C(=O)[C@@H]2[C@H](C1=O)[C@H](/C=C/c1ccc(-c3ccccc3Cl)cn1)N1CCCC[C@@H]21 (racemic) [Example 20, 4-{(E)-2-[5-(2-Chlorophenyl)pyridin-2-yl]vinyl}-2-methyloctahydropyrrolo[3,4-a]-indolizine-1,3-dione]
